In patent publication US20230295149A1, “MONOBACTAM COMPOUNDS, THEIR PREPARATION AND USE AS ANTIBACTERIAL AGENTS” (NINGXIA ACADEMY OF AGRICULTURE AND FORESTRY SCIENCES, priority 2020, published 2023):

How the values were obtained:
Test in all cases: MIC determination, broth microdilution
Format in all cases: cell-based
E. cloacae 700323 = details: Enterobacter cloacae, 37° C., 18-24 hours, read-out: Strain 6 MIC
Method: (§1) Compounds of this invention were tested for antimicrobial activity by determining minimum inhibitory concentrations (MICs, in μg/mL) using the broth microdilution method according to the guidelines of the Clinical Laboratories and Standards Institute (“Methods for Dilution Antimicrobial Susceptibility Tests for Bacteria that Grow Aerobically”, Approved standard, 7th ed., Clinical and Laboratory Standards Institute (CLSI) Document M7-A8, Wayne, Pa., USA, 2009.). Test compounds were dissolved in DMSO. The compounds were then diluted in microbial growth medium (Mueller Hinton Broth II, cation adjusted) resulting in a final concentration range of 0.063-64 μg/mL in serial two-fold dilution. In all cases the final DMSO concentration was less than 0.5%. Bacteria were added to 96-well microtitre plates containing the two-fold dilutions of the compounds; the final cell density was approximately 5×10^5 colony forming units/mL (CFU/mL). Plates were incubated at 37° C. for 18-24 hours and read visually. The MIC, i.e. the lowest concentration of the test compound that inhibited visible growth of the bacteria, was recorded. The same assay conditions were used when the compounds of this invention were tested in combination with—lactamase inhibitors. While the compounds of this invention were serially diluted as described above, a constant concentration of the inhibitor of 4 mg/L was used. Bacterial strains that were used to evaluate the antimicrobial activity using the MIC determination included but were not limited to E. coli clinical isolate, E. coli 8739, K. pneumoniae clinical isolate, K. pneumoniae 700603, E. cloacae clinical isolate, E. cloacae 700323, A. baumannii clinical isolate, A. baumannii 19606, P. aeruginosa clinical isolate, P. aeruginosa 9027.

E. coli clinical isolate = details: Escherichia coli, 37° C., 18-24 hours, read-out: Strain 1 MIC
Method: as §1

P. aeruginosa 9027 = details: Pseudomonas aeruginosa, 37° C., 18-24 hours, read-out: Strain 10 MIC
Method: as §1

[1] = tested on: E. cloacae clinical isolate; details: Enterobacter cloacae, 37° C., 18-24 hours, read-out: Strain5 MIC
Method: as §1

[2] = tested on: A. baumannii clinical isolate; details: Acinetobacter baumannii, 37° C., 18-24 hours, read-out: Strain 7 MIC
Method: as §1

K. pneumoniae 700603 = details: Klebsiella pneumoniae, 37° C., 18-24 hours, read-out: Strain 4 MIC
Method: as §1

[3] = tested on: K. pneumoniae clinical isolate; details: Klebsiella pneumoniae, 37° C., 18-24 hours, read-out: Strain 3 MIC
Method: as §1

E. coli 8739 = details: Escherichia coli, 37° C., 18-24 hours, read-out: Strain 2 MIC
Method: as §1

A. baumannii 19606 = details: Acinetobacter baumannii, 37° C., 18-24 hours, read-out: Strain8 MIC
Method: as §1

[4] = tested on: P. aeruginosa clinical isolate; details: Pseudomonas aeruginosa, 37° C., 18-24 hours, read-out: Strain 9 MIC
Method: as §1

SMILES: C[C@H]1[C@H](NC(=O)/C(=N\OC(C)(C)C(=O)O)c2csc(N)n2)C(=O)N1S(=O)(=O)O [AZT, Aztreonam, reference compound]
- MIC (E. cloacae 700323): > 64 µg/mL
- MIC (E. coli clinical isolate): > 64 µg/mL
- MIC (P. aeruginosa 9027): 16 µg/mL
- MIC [1]: > 64 µg/mL
- MIC [2]: > 64 µg/mL
- MIC (K. pneumoniae 700603): 64 µg/mL
- MIC [3]: 64 µg/mL
- MIC (E. coli 8739): 16 µg/mL
- MIC (A. baumannii 19606): 32 µg/mL
- MIC [4]: > 64 µg/mL

SMILES: CC(C)(O/N=C(\C(=O)N[C@@H]1C(=O)N2C(C(=O)[O-])=C(C[n+]3ccccc3)CS[C@H]12)c1csc(N)n1)C(=O)O [CAZ, Ceftazidime, reference compound]
- MIC (E. cloacae 700323): > 64 µg/mL
- MIC (E. coli clinical isolate): > 64 µg/mL
- MIC (P. aeruginosa 9027): > 64 µg/mL
- MIC [1]: > 64 µg/mL
- MIC [2]: > 64 µg/mL
- MIC (K. pneumoniae 700603): > 64 µg/mL
- MIC [3]: > 64 µg/mL
- MIC (E. coli 8739): > 64 µg/mL
- MIC (A. baumannii 19606): > 64 µg/mL
- MIC [4]: > 64 µg/mL

SMILES: CC1(C)[C@H](NC(=O)/C(=N\O[C@@H](COc2ccc(C(=N)NC3CCNCC3)cc2)C(=O)O)c2nc(N)sc2Cl)C(=O)N1OS(=O)(=O)O [Example 1, (S)-2-((((Z)-1-(2-Amino-5-chlorothiazol-4-yl)-2-(((S)-2,2-dimethyl-4-oxo-1-(sulfooxy)azetidin-3-yl)amino)-2-oxoethylidene)amino)oxy)-3-(4-(N-(piperidin-4-yl)carbamimidoyl)phenoxy)propanoic acid]
- MIC (E. cloacae 700323): 8 µg/mL
- MIC (E. coli clinical isolate): 8 µg/mL
- MIC (P. aeruginosa 9027): 2 µg/mL
- MIC [1]: 8 µg/mL
- MIC [2]: 16 µg/mL
- MIC (K. pneumoniae 700603): 8 µg/mL
- MIC [3]: 4 µg/mL
- MIC (E. coli 8739): 1 µg/mL
- MIC (A. baumannii 19606): 8 µg/mL
- MIC [4]: 2 µg/mL

SMILES: CC1(C)[C@H](NC(=O)/C(=N\O[C@@H](COc2ccc(C(=N)NC3CCNCC3)cc2)C(=O)O)c2nsc(N)n2)C(=O)N1OS(=O)(=O)O [Example 2, (S)-2-((((Z)-1-(5-Amino-1,2,4-thiadiazol-3-yl)-2-(((S)-2,2-dimethyl-4-oxo-1-(sulfooxy)azetidin-3-yl)amino)-2-oxoethylidene)amino)oxy)-3-(4-(N-(piperidin-4-yl)carbamimidoyl)phenoxy)propanoic acid]
- MIC (E. cloacae 700323): 64 µg/mL
- MIC (E. coli clinical isolate): 0.5 µg/mL
- MIC (P. aeruginosa 9027): 1 µg/mL
- MIC [1]: 8 µg/mL
- MIC [2]: 8 µg/mL
- MIC (K. pneumoniae 700603): 64 µg/mL
- MIC [3]: 16 µg/mL
- MIC (E. coli 8739): 0.125 µg/mL
- MIC (A. baumannii 19606): 32 µg/mL
- MIC [4]: 1 µg/mL

SMILES: CC1(C)[C@H](NC(=O)/C(=N\O[C@@H](COc2ccc(C(=N)N[C@@H]3CCCNC3)cc2)C(=O)O)c2nc(N)sc2Cl)C(=O)N1OS(=O)(=O)O [Example 3, (S)-2-((((Z)-1-(2-Amino-5-chlorothiazol-4-yl)-2-(((S)-2,2-dimethyl-4-oxo-1-(sulfooxy)azetidin-3-yl)amino)-2-oxoethylidene)amino)oxy)-3-(4-(N—((R)-piperidin-3-yl)carbamimidoyl)phenoxy)propanoic acid]
- MIC (E. cloacae 700323): 8 µg/mL
- MIC (E. coli clinical isolate): 2 µg/mL
- MIC (P. aeruginosa 9027): 1 µg/mL
- MIC [1]: 8 µg/mL
- MIC [2]: 16 µg/mL
- MIC (K. pneumoniae 700603): 8 µg/mL
- MIC [3]: 2 µg/mL
- MIC (E. coli 8739): 0.5 µg/mL
- MIC (A. baumannii 19606): 8 µg/mL
- MIC [4]: 4 µg/mL

SMILES: CC1(C)[C@H](NC(=O)/C(=N\O[C@@H](COc2ccc(C(=N)N[C@@H]3CCCNC3)cc2)C(=O)O)c2nsc(N)n2)C(=O)N1OS(=O)(=O)O [Example 4, (S)-2-((((Z)-1-(5-Amino-1,2,4-thiadiazol-3-yl)-2-(((S)-2,2-dimethyl-4-oxo-1-(sulfooxy)azetidin-3-yl)amino)-2-oxoethylidene)amino)oxy)-3-(4-(N—((R)-piperidin-3-yl)carbamimidoyl)phenoxy)propanoic acid]
- MIC (E. cloacae 700323): 64 µg/mL
- MIC (E. coli clinical isolate): 0.25 µg/mL
- MIC (P. aeruginosa 9027): 1 µg/mL
- MIC [1]: 16 µg/mL
- MIC [2]: 8 µg/mL
- MIC (K. pneumoniae 700603): 64 µg/mL
- MIC [3]: 8 µg/mL
- MIC (E. coli 8739): 0.25 µg/mL
- MIC (A. baumannii 19606): 16 µg/mL
- MIC [4]: 2 µg/mL

SMILES: CC1(C)[C@H](NC(=O)/C(=N\O[C@@H](COc2ccc(C(=N)N[C@H]3CCNC3)cc2)C(=O)O)c2nc(N)sc2Cl)C(=O)N1OS(=O)(=O)O [Example 5, (S)-2-((((Z)-1-(2-Amino-5-chlorothiazol-4-yl)-2-(((S)-2,2-dimethyl-4-oxo-1-(sulfooxy)azetidin-3-yl)amino)-2-oxoethylidene)amino)oxy)-3-(4-(N—((S)-pyrrolidin-3-yl)carbamimidoyl)phenoxy)propanoic acid]
- MIC (E. cloacae 700323): 4 µg/mL
- MIC (E. coli clinical isolate): 0.25 µg/mL
- MIC (P. aeruginosa 9027): 0.5 µg/mL
- MIC [1]: 2 µg/mL
- MIC [2]: 8 µg/mL
- MIC (K. pneumoniae 700603): 4 µg/mL
- MIC [3]: 1 µg/mL
- MIC (E. coli 8739): 0.25 µg/mL
- MIC (A. baumannii 19606): 4 µg/mL
- MIC [4]: 1 µg/mL

SMILES: CC1(C)[C@H](NC(=O)/C(=N\O[C@@H](COc2ccc(C(=N)N[C@H]3CCNC3)cc2)C(=O)O)c2nsc(N)n2)C(=O)N1OS(=O)(=O)O [Example 6, (S)-2-((((Z)-1-(5-Amino-1,2,4-thiadiazol-3-yl)-2-(((S)-2,2-dimethyl-4-oxo-1-(sulfooxy)azetidin-3-yl)amino)-2-oxoethylidene)amino)oxy)-3-(4-(N—((S)-pyrrolidin-3-yl)carbamimidoyl)phenoxy)propanoic acid]
- MIC (E. cloacae 700323): 32 µg/mL
- MIC (E. coli clinical isolate): 0.5 µg/mL
- MIC (P. aeruginosa 9027): 0.5 µg/mL
- MIC [1]: 4 µg/mL
- MIC [2]: 4 µg/mL
- MIC (K. pneumoniae 700603): 64 µg/mL
- MIC [3]: 1 µg/mL
- MIC (E. coli 8739): 0.125 µg/mL
- MIC (A. baumannii 19606): 16 µg/mL
- MIC [4]: 2 µg/mL

SMILES: CC1(C)[C@H](NC(=O)/C(=N\O[C@@H](COc2ccc(C(=N)NC3CNC3)cc2)C(=O)O)c2nsc(N)n2)C(=O)N1OS(=O)(=O)O [Example 7, (S)-2-((((Z)-1-(5-Amino-1,2,4-thiadiazol-3-yl)-2-(((S)-2,2-dimethyl-4-oxo-1-(sulfooxy)azetidin-3-yl)amino)-2-oxoethylidene)amino)oxy)-3-(4-(N-(azetidin-3-yl)carbamimidoyl)phenoxy)propanoic acid]
- MIC (E. cloacae 700323): 16 µg/mL
- MIC (E. coli clinical isolate): 0.125 µg/mL
- MIC (P. aeruginosa 9027): 0.5 µg/mL
- MIC [1]: 8 µg/mL
- MIC [2]: 4 µg/mL
- MIC (K. pneumoniae 700603): 32 µg/mL
- MIC [3]: 2 µg/mL
- MIC (E. coli 8739): 0.25 µg/mL
- MIC (A. baumannii 19606): 8 µg/mL
- MIC [4]: 0.5 µg/mL

SMILES: CC1(C)[C@H](NC(=O)/C(=N\O[C@@H](COc2ccc(C(=N)NC3CNC3)cc2)C(=O)O)c2nc(N)sc2Cl)C(=O)N1OS(=O)(=O)O [Example 8, (S)-2-((((Z)-1-(2-Amino-5-chlorothiazol-4-yl)-2-(((S)-2,2-dimethyl-4-oxo-1-(sulfooxy)azetidin-3-yl)amino)-2-oxoethylidene)amino)oxy)-3-(4-(N-(azetidin-3-yl)carbamimidoyl)phenoxy)propanoic acid]
- MIC (E. cloacae 700323): 8 µg/mL
- MIC (E. coli clinical isolate): 0.5 µg/mL
- MIC (P. aeruginosa 9027): 1 µg/mL
- MIC [1]: 8 µg/mL
- MIC [2]: 8 µg/mL
- MIC (K. pneumoniae 700603): 8 µg/mL
- MIC [3]: 8 µg/mL
- MIC (E. coli 8739): 0.25 µg/mL
- MIC (A. baumannii 19606): 4 µg/mL
- MIC [4]: 1 µg/mL

SMILES: C[C@H]1[C@H](NC(=O)/C(=N\O[C@@H](COc2ccc(C(=N)N[C@H]3CCCNC3)cc2)C(=O)O)c2nc(N)sc2Cl)C(=O)N1S(=O)(=O)O [Example 9, (S)-2-((((Z)-1-(2-Amino-5-chlorothiazol-4-yl)-2-(((2S,3S)-2-methyl-4-oxo-1-sulfoazetidin-3-yl)amino)-2-oxoethylidene)amino)oxy)-3-(4-(N—((S)-piperidin-3-yl)carbamimidoyl)phenoxy)propanoic acid]
- MIC (E. cloacae 700323): 32 µg/mL
- MIC (E. coli clinical isolate): 1 µg/mL
- MIC (P. aeruginosa 9027): 1 µg/mL
- MIC [1]: 64 µg/mL
- MIC [2]: 32 µg/mL
- MIC (K. pneumoniae 700603): 64 µg/mL
- MIC [3]: 32 µg/mL
- MIC (E. coli 8739): 0.5 µg/mL
- MIC (A. baumannii 19606): 16 µg/mL
- MIC [4]: 16 µg/mL

SMILES: CC1(C)[C@H](NC(=O)/C(=N\O[C@@H](COc2ccc(C(=N)N[C@@H]3CCNC3)cc2)C(=O)O)c2nc(N)sc2Cl)C(=O)N1OS(=O)(=O)O [Example 10, (S)-2-((((Z)-1-(2-Amino-5-chlorothiazol-4-yl)-2-(((S)-2,2-dimethyl-4-oxo-1-(sulfooxy)azetidin-3-yl)amino)-2-oxoethylidene)amino)oxy)-3-(4-(N—((R)-pyrrolidin-3-yl)carbamimidoyl)phenoxy)propanoic acid]
- MIC (E. cloacae 700323): 4 µg/mL
- MIC (E. coli clinical isolate): 1 µg/mL
- MIC (P. aeruginosa 9027): 2 µg/mL
- MIC [1]: 2 µg/mL
- MIC [2]: 8 µg/mL
- MIC (K. pneumoniae 700603): 1 µg/mL
- MIC [3]: 1 µg/mL
- MIC (E. coli 8739): 0.25 µg/mL
- MIC (A. baumannii 19606): 8 µg/mL
- MIC [4]: 2 µg/mL
